# Laboratory results: patent US20260199368A1, “[…] SYSTEM CONTAINING REMIMAZOLAM” (LTS LOHMANN THERAPIE-SYSTEME AG, priority 2022, published 2026)
# How the values were obtained:
# Goettingen minipigs = experiment: In vivo studies using Goettingen minipigs: depth of sedation score; settings: Animal No 1; 10 min post dosing; IV, 2 mL of 5 mg/mL (10 mg)
# [1] = Mucosa permeation study (in vitro permeation test); type: in vitro ADME, pig
# Experimental: Where not otherwise indicated, the in vitro permeation test is performed with dermatomed split-thickness pig mucosa (mucosa oesophagus) with a thickness of 400 μm and an intact barrier function, and with phosphate buffer pH 7.4 as receptor medium (37° C.). The amount of active permeated into the receptor medium is determined in regular intervals using an HPLC method with a UV photometric detector by taking a sample volume. The measured amount of active permeated relates to the amount permeated between the two last sampling points and not the total amount permeated so far. Within the meaning of this invention, artificial saliva refers to an aqueous solution of 0.520 g/L potassium thiocyanate, 1.470 g/L potassium chloride, 0.190 g/L sodium dihydrogenphosphate monohydrate and 2.650 g/L sodium hydrogenphosphate dihydrate, adjusted to a pH of 7.0+/−0.05 using 1 N NaOH.
# For the investigation of the potential impact of pH on the permeation, a permeation study was performed to assess the permeation of remimazolam besylate (RMZ besylate) through the mucosa in dependence of pH value. In a second run, also the performance of remimazolam lyophilizate product (RMZ besylate) vs. oromucosal delivery system was assessed.
# The samples used for permeation run 1 are defined in Table 19.
# The permeated amount and the corresponding mucosa permeation rates of the oromucosal delivery system prepared according to Examples 2a were determined by in vitro experiments in accordance with the OECD Guideline (adopted Apr. 13, 2004) using pig mucosa with a thickness of 400 μm (mucosa oesophagus). The donor solutions were prepared by dissolving a sample film of Example 2a with a size of 5.75 cm^2 either in 5 ml artificial saliva or in 5 ml 0.9% NaCl. The remimazolam besylate was dissolved in artificial saliva so that the applied dose of RMZ was equivalent to an oromucosal delivery system containing 50 mg remimazolam in 500 μL medium, and the pH of the mixture was adjusted as indicated in Table 19. The pH was measured using a pH electrode. The permeation donor solutions were directly applied to the mucosa (diffusion area of 4.524 cm^2). The remimazolam permeated amount in the receptor medium (phosphate buffer solution pH 7.4) at a temperature of 37±1° C. was measured and the corresponding mucosa permeation rate calculated.
# Due to the high variability in permeation run 1 (n=3), a second permeation experiment was performed with more replicates (n=6) to enlarge the data basis. The samples used are defined in table 15. Example 2a and Lyophilizate were dissolved in artificial saliva and 0.9% NaCl, respectively. Due to a pH adjustment in the lyophilizate/drug product, the resulting pH was slightly lower (pH 3.14 and pH 3.09) than with the Example 2a without pH adjustment (pH 3.67 and pH 3.50). A RMZ sample set to pH 3 served as a control.
# The permeated amount and the corresponding mucosa permeation rates of the oromucosal delivery system prepared according to Examples 2a were determined as outlined above. The remimazolam permeated amount in the receptor medium (phosphate buffer solution pH 7.4) at a temperature of 37±1° C. was measured and the corresponding mucosa permeation rate calculated.
compound,measurement,setting,value
"COC(=O)CC[C@@H]1N=C(c2ccccn2)c2cc(Br)ccc2-n2c(C)cnc21.O=S(=O)(O)c1ccccc1 [RMZ, remimazolam besylate]",Sedation/anaesthesia score,Goettingen minipigs,¾
same,permeation rate (assessment),"[1]; artificial saliva, pH 4.5 and pH 6",poor
same,mucosa permeation rate,"[1]; n = 3, in artificial saliva (pH 2), 2.5 min",1.98 μg/cm^2 min
same,mucosa permeation rate,"[1]; n = 3, in artificial saliva (pH 2), 7.5 min",2.09 μg/cm^2 min
same,mucosa permeation rate,"[1]; n = 3, in artificial saliva (pH 2), 12.5 min",1.83 μg/cm^2 min
same,mucosa permeation rate,"[1]; n = 3, in artificial saliva (pH 2), 17.5 min",1.95 μg/cm^2 min
same,mucosa permeation rate,"[1]; n = 3, in artificial saliva (pH 2), 22.5 min",1.92 μg/cm^2 min
same,mucosa permeation rate,"[1]; n = 3, in artificial saliva (pH 2), 27.5 min",2.04 μg/cm^2 min
same,mucosa permeation rate,"[1]; n = 3, in artificial saliva (pH 2), 45 min",1.36 μg/cm^2 min
same,mucosa permeation rate,"[1]; n = 3, in artificial saliva (pH 3), 2.5 min",0.19 μg/cm^2 min
same,mucosa permeation rate,"[1]; n = 3, in artificial saliva (pH 3), 7.5 min",0.75 μg/cm^2 min
same,mucosa permeation rate,"[1]; n = 3, in artificial saliva (pH 3), 12.5 min",1.18 μg/cm^2 min
same,mucosa permeation rate,"[1]; n = 3, in artificial saliva (pH 3), 17.5 min",1.43 μg/cm^2 min
same,mucosa permeation rate,"[1]; n = 3, in artificial saliva (pH 3), 22.5 min",1.62 μg/cm^2 min
same,mucosa permeation rate,"[1]; n = 3, in artificial saliva (pH 3), 27.5 min",1.80 μg/cm^2 min
same,mucosa permeation rate,"[1]; n = 3, in artificial saliva (pH 3), 45 min",1.60 μg/cm^2 min
same,mucosa permeation rate,"[1]; n = 3, in artificial saliva (pH 4.5), 2.5 min",0.09 μg/cm^2 min
same,mucosa permeation rate,"[1]; n = 3, in artificial saliva (pH 4.5), 7.5 min",0.37 μg/cm^2 min
same,mucosa permeation rate,"[1]; n = 3, in artificial saliva (pH 4.5), 12.5 min",0.22 μg/cm^2 min
same,mucosa permeation rate,"[1]; n = 3, in artificial saliva (pH 4.5), 17.5 min",0.26 μg/cm^2 min
same,mucosa permeation rate,"[1]; n = 3, in artificial saliva (pH 4.5), 22.5 min",0.34 μg/cm^2 min
same,mucosa permeation rate,"[1]; n = 3, in artificial saliva (pH 4.5), 27.5 min",0.58 μg/cm^2 min
same,mucosa permeation rate,"[1]; n = 3, in artificial saliva (pH 4.5), 45 min",0.26 μg/cm^2 min
same,mucosa permeation rate,"[1]; n = 3, in artificial saliva (pH 6), 2.5 min",0.11 μg/cm^2 min
same,mucosa permeation rate,"[1]; n = 3, in artificial saliva (pH 6), 7.5 min",0.18 μg/cm^2 min
same,mucosa permeation rate,"[1]; n = 3, in artificial saliva (pH 6), 12.5 min",0.18 μg/cm^2 min
same,mucosa permeation rate,"[1]; n = 3, in artificial saliva (pH 6), 17.5 min",0.31 μg/cm^2 min
same,mucosa permeation rate,"[1]; n = 3, in artificial saliva (pH 6), 22.5 min",0.37 μg/cm^2 min
same,mucosa permeation rate,"[1]; n = 3, in artificial saliva (pH 6), 27.5 min",0.58 μg/cm^2 min
same,mucosa permeation rate,"[1]; n = 3, in artificial saliva (pH 6), 45 min",0.47 μg/cm^2 min
same,mucosa permeation rate,"[1]; n = 6, in artificial saliva (pH 3), 2.5 min",0.01 μg/cm^2 min
same,mucosa permeation rate,"[1]; n = 6, in artificial saliva (pH 3), 7.5 min",0.21 μg/cm^2 min
same,mucosa permeation rate,"[1]; n = 6, in artificial saliva (pH 3), 12.5 min",0.65 μg/cm^2 min
same,mucosa permeation rate,"[1]; n = 6, in artificial saliva (pH 3), 17.5 min",1.08 μg/cm^2 min
same,mucosa permeation rate,"[1]; n = 6, in artificial saliva (pH 3), 22.5 min",1.38 μg/cm^2 min
same,mucosa permeation rate,"[1]; n = 6, in artificial saliva (pH 3), 27.5 min",1.56 μg/cm^2 min
same,mucosa permeation rate,"[1]; n = 6, in artificial saliva (pH 3), 45 min",1.23 μg/cm^2 min
same,"mucosa permeation, comparison between samples","[1]; run 2, n = 6, 0.9% NaCl and artificial saliva",no significant difference
